# Laboratory results taken from patent US12618095B2, “Medium for Bacillus cereus group detection” (SHIMADZU DIAGNOSTICS CORPORATION, priority 2020, dated 2026).
# How the values were obtained:
# Assay in all cases: Test Example 10: agar medium with aztreonam or ceftazidime
# E. amnigenus = settings: 22 hours; for Number of colonies: ATCC33072
# B. cereus = settings: 22 hours
# B. thuringiensis = settings: NBRC101235, 22 hours
# E. coli = assay type: cell-based; settings: 22 hours; for Number of colonies: ATCC8739
# [1] = Ceftazidime 0.05 mg, 10^1 cfu/mL
# [2] = Ceftazidime 0.05 mg, 10^2 cfu/mL
# [3] = Ceftazidime 0.05 mg, 10^3 cfu/mL
# [4] = Ceftazidime 0.05 mg, 10^4 cfu/mL
# [5] = Ceftazidime 0.05 mg, 10^5 cfu/mL
# [6] = Ceftazidime 0.5 mg, 10^1 cfu/mL
# [7] = Ceftazidime 0.5 mg, 10^2 cfu/mL
# [8] = Ceftazidime 0.5 mg, 10^3 cfu/mL
# [9] = Ceftazidime 0.5 mg, 10^4 cfu/mL
# [10] = Ceftazidime 0.5 mg, 10^5 cfu/mL
structure (smiles),measurement,setting,value
CC(C)(O/N=C(\C(=O)N[C@@H]1C(=O)N2C(C(=O)[O-])=C(C[n+]3ccccc3)CS[C@H]12)c1csc(N)n1)C(=O)O [ceftazidime],Number of colonies,E. amnigenus; [1],−
same,Number of colonies,E. amnigenus; [2],−
same,Number of colonies,E. amnigenus; [3],1
same,Number of colonies,E. amnigenus; [4],33
same,Number of colonies,E. amnigenus; [5],+
same,Number of colonies,E. amnigenus; [6],−
same,Number of colonies,E. amnigenus; [7],−
same,Number of colonies,E. amnigenus; [8],−
same,Number of colonies,E. amnigenus; [9],−
same,Number of colonies,E. amnigenus; [10],−
same,Number of colonies,"E. amnigenus; Ceftazidime 5 mg, 10^1 cfu/mL",−
same,Number of colonies,"E. amnigenus; Ceftazidime 5 mg, 10^2 cfu/mL",−
same,Number of colonies,"E. amnigenus; Ceftazidime 5 mg, 10^3 cfu/mL",−
same,Number of colonies,"E. amnigenus; Ceftazidime 5 mg, 10^4 cfu/mL",−
same,Number of colonies,"E. amnigenus; Ceftazidime 5 mg, 10^5 cfu/mL",−
same,formation of a white colony,"E. amnigenus; added to TSA-BC, 30° C.",suppressed
same,Number of colonies,"B. cereus; ATCC11778, Ceftazidime 0.05 mg, 10^1 cfu/mL",2
same,Number of colonies,"B. cereus; ATCC11778, Ceftazidime 0.05 mg, 10^2 cfu/mL",11
same,Number of colonies,"B. cereus; ATCC11778, Ceftazidime 0.05 mg, 10^3 cfu/mL",+
same,Number of colonies,"B. cereus; ATCC11778, Ceftazidime 0.05 mg, 10^4 cfu/mL",+
same,Number of colonies,"B. cereus; ATCC11778, Ceftazidime 0.05 mg, 10^5 cfu/mL",+
same,Number of colonies,"B. cereus; ATCC11778, Ceftazidime 0.5 mg, 10^1 cfu/mL",−
same,Number of colonies,"B. cereus; ATCC11778, Ceftazidime 0.5 mg, 10^2 cfu/mL",13
same,Number of colonies,"B. cereus; ATCC11778, Ceftazidime 0.5 mg, 10^3 cfu/mL",+
same,Number of colonies,"B. cereus; ATCC11778, Ceftazidime 0.5 mg, 10^4 cfu/mL",+
same,Number of colonies,"B. cereus; ATCC11778, Ceftazidime 0.5 mg, 10^5 cfu/mL",+
same,Number of colonies,"B. cereus; ATCC11778, Ceftazidime 5 mg, 10^1 cfu/mL",−
same,Number of colonies,"B. cereus; ATCC11778, Ceftazidime 5 mg, 10^2 cfu/mL",17
same,Number of colonies,"B. cereus; ATCC11778, Ceftazidime 5 mg, 10^3 cfu/mL",+
same,Number of colonies,"B. cereus; ATCC11778, Ceftazidime 5 mg, 10^4 cfu/mL",+
same,Number of colonies,"B. cereus; ATCC11778, Ceftazidime 5 mg, 10^5 cfu/mL",+
same,Number of colonies,"B. cereus; ATCC19637, Ceftazidime 0.05 mg, 10^1 cfu/mL",−
same,Number of colonies,"B. cereus; ATCC19637, Ceftazidime 0.05 mg, 10^2 cfu/mL",7
same,Number of colonies,"B. cereus; ATCC19637, Ceftazidime 0.05 mg, 10^3 cfu/mL",+
same,Number of colonies,"B. cereus; ATCC19637, Ceftazidime 0.05 mg, 10^4 cfu/mL",+
same,Number of colonies,"B. cereus; ATCC19637, Ceftazidime 0.05 mg, 10^5 cfu/mL",+
same,Number of colonies,"B. cereus; ATCC19637, Ceftazidime 0.5 mg, 10^1 cfu/mL",−
same,Number of colonies,"B. cereus; ATCC19637, Ceftazidime 0.5 mg, 10^2 cfu/mL",12
same,Number of colonies,"B. cereus; ATCC19637, Ceftazidime 0.5 mg, 10^3 cfu/mL",+
same,Number of colonies,"B. cereus; ATCC19637, Ceftazidime 0.5 mg, 10^4 cfu/mL",+
same,Number of colonies,"B. cereus; ATCC19637, Ceftazidime 0.5 mg, 10^5 cfu/mL",+
same,Number of colonies,"B. cereus; ATCC19637, Ceftazidime 5 mg, 10^1 cfu/mL",3
same,Number of colonies,"B. cereus; ATCC19637, Ceftazidime 5 mg, 10^2 cfu/mL",5
same,Number of colonies,"B. cereus; ATCC19637, Ceftazidime 5 mg, 10^3 cfu/mL",+
same,Number of colonies,"B. cereus; ATCC19637, Ceftazidime 5 mg, 10^4 cfu/mL",+
same,Number of colonies,"B. cereus; ATCC19637, Ceftazidime 5 mg, 10^5 cfu/mL",+
same,Number of colonies,B. thuringiensis; [1],5
same,Number of colonies,B. thuringiensis; [2],13
same,Number of colonies,B. thuringiensis; [3],+
same,Number of colonies,B. thuringiensis; [4],+
same,Number of colonies,B. thuringiensis; [5],+
same,Number of colonies,B. thuringiensis; [6],3
same,Number of colonies,B. thuringiensis; [7],10
same,Number of colonies,B. thuringiensis; [8],+
same,Number of colonies,B. thuringiensis; [9],+
same,Number of colonies,B. thuringiensis; [10],+
same,Number of colonies,"B. thuringiensis; Ceftazidime 5 mg, 10^1 cfu/mL",4
same,Number of colonies,"B. thuringiensis; Ceftazidime 5 mg, 10^2 cfu/mL",16
same,Number of colonies,"B. thuringiensis; Ceftazidime 5 mg, 10^3 cfu/mL",+
same,Number of colonies,"B. thuringiensis; Ceftazidime 5 mg, 10^4 cfu/mL",+
same,Number of colonies,"B. thuringiensis; Ceftazidime 5 mg, 10^5 cfu/mL",+
same,Number of colonies,E. coli; [1],−
same,Number of colonies,E. coli; [2],−
same,Number of colonies,E. coli; [3],−
same,Number of colonies,E. coli; [4],−
same,Number of colonies,E. coli; [5],−
same,Number of colonies,E. coli; [6],−
same,Number of colonies,E. coli; [7],−
same,Number of colonies,E. coli; [8],−
same,Number of colonies,E. coli; [9],−
same,Number of colonies,E. coli; [10],−
same,Number of colonies,"E. coli; Ceftazidime 5 mg, 10^1 cfu/mL",−
same,Number of colonies,"E. coli; Ceftazidime 5 mg, 10^2 cfu/mL",−
same,Number of colonies,"E. coli; Ceftazidime 5 mg, 10^3 cfu/mL",−
same,Number of colonies,"E. coli; Ceftazidime 5 mg, 10^4 cfu/mL",−
same,Number of colonies,"E. coli; Ceftazidime 5 mg, 10^5 cfu/mL",−
same,formation of a white colony,"E. coli; added to TSA-BC, 30° C.",suppressed
